Reference: patent US7390812B2, “N, N'-disubstituted piperazine compounds and their use as analgesics” (Gruenenthal GmbH, priority 2001, dated 2008)

The molecules below were run against T1, NA transporter (Rattus norvegicus, UniProt Q63380) (assay: Noradrenaline reuptake inhibition (NA uptake inhibition) in synaptosomes). Conditions: synaptosomes from hypothalamus of male rat brains.
T1 construct: synaptosomes were freshly isolated from rat brain regions; from tissue; host or cells: rat hypothalamus synaptosomes (P2 fraction)
T1 sequence (Q63380 1-617): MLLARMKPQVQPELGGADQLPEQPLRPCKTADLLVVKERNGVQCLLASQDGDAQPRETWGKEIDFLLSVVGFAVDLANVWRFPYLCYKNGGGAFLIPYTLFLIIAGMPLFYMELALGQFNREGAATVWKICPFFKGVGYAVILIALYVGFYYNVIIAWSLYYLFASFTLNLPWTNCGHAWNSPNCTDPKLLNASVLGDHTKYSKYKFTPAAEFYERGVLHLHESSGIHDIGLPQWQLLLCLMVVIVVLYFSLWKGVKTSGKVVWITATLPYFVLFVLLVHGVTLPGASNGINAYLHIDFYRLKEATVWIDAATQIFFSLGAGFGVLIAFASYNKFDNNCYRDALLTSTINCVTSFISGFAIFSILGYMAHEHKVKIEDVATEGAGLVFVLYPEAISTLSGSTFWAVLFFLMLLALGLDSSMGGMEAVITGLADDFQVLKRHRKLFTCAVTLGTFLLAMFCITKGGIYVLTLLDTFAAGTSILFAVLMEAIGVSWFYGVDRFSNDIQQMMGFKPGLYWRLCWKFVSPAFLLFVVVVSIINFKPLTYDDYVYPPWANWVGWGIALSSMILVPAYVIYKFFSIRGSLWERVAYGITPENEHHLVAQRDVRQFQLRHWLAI
Assay type: biochemical
Experimental: In order to be able to carry out these in vitro studies, synaptosomes were freshly isolated from rat brain regions. A so-called “P2” fraction was used, which was prepared according to the instructions given by Gray and Whittaker (E. G. Gray and V. P. Whittaker (1962) J. Anat. 76, 79-88).

| inhibition at 10 µM | Molecule |
| --- | --- |
| 39% | CCC(O)(Cc1ccc(Cl)cc1)C(C)CN1CCN(c2cccc(Cl)c2)CC1 (stereo not shown) [3-(4-Chloro-benzyl)-1-[4-(3-chloro-phenyl)-piperazin-1-yl]-2-methyl-pentan-3-ol] |
| 45% | CCC(O)(c1ccc(OC)cc1)C(C)CN1CCN(c2cccc(Cl)c2)CC1 (stereo not shown) [1-[4-(3-Chloro-phenyl)-piperazin-1-yl]-3-(4-methoxy-phenyl)-2-methyl-pentan-3-ol] |
| 46% | CCC(O)(C#Cc1ccccc1)C(C)CN1CCN(c2cccc(Cl)c2)CC1 (stereo not shown) [5-[4-(3-Chloro-phenyl)-piperazin-1-yl]-3-ethyl-4-methyl-1-phenyl-pent-1-yn-3-ol] |
| 54% | CCC(O)(c1ccc(Cl)cc1)C(C)CN1CCN(c2cccc(Cl)c2)CC1 (stereo not shown) [3-(4-Chloro-phenyl)-1-[4-(3-chloro-phenyl)-piperazin-1-yl]-2-methyl-pentan-3-ol] |
| 51% | CN1CCN(CC2CCCCC2(O)c2ccc(F)cc2)CC1 (stereo not shown) [1-(4-Fluoro-phenyl)-2-(4-methyl-piperazin-1-ylmethyl)-cyclohexanol] |
| 53% | CCC(O)(c1cccc(Cl)c1)C(C)CN1CCN(c2cccc(Cl)c2)CC1 (stereo not shown) [3-(3-Chloro-phenyl)-1-[4-(3-chloro-phenyl)-piperazin-1-yl]-2-methyl-pentan-3-ol] |
| 62% | CCC(O)(c1ccc(C(C)(C)C)cc1)C(C)CN1CCN(c2cccc(Cl)c2)CC1 (stereo not shown) [3-(4-tert-Butyl-phenyl)-1-[4-(3-chloro-phenyl)-piperazin-1-yl]-2-methyl-pentan-3-ol] |
| 41% | CCC(O)(c1ccc(C)cc1)C(C)CN1CCN(c2cccc(Cl)c2)CC1 (stereo not shown) [1-[4-(3-Chloro-phenyl)-piperazin-1-yl]-2-methyl-3-p-tolyl-pentan-3-ol] |
| 52% | CCC(O)(CCc1ccccc1)C(C)CN1CCN(c2cccc(Cl)c2)CC1 (stereo not shown) [1-[4-(3-Chloro-phenyl)-piperazin-1-yl]-3-ethyl-2-methyl-5-phenyl-pentan-3-ol] |
| 61% | CCC(O)(c1ccccc1)C(C)CN1CCN(c2cccc(Cl)c2)CC1 (stereo not shown) [1-[4-(3-Chloro-phenyl)-piperazin-1-yl]-2-methyl-3-phenyl-pentan-3-ol] |
| 55% | CCC(O)(Cc1cccc(C)c1)C(C)CN1CCN(c2cccc(Cl)c2)CC1 (stereo not shown) [1-[4-(3-Chloro-phenyl)-piperazin-1-yl]-2-methyl-3-(3-methyl-benzyl)-pentan-3-ol] |
| 53% | CCC(O)(c1cccc(F)c1)C(C)CN1CCN(c2cccc(Cl)c2)CC1 (stereo not shown) [1-[4-(3-Chloro-phenyl)-piperazin-1-yl]-3-(3-fluoro-phenyl)-2-methyl-pentan-3-ol] |
| 50% | CCC(O)(Cc1cccc(F)c1)C(C)CN1CCN(c2cccc(Cl)c2)CC1 (stereo not shown) [1-[4-(3-Chloro-phenyl)-piperazin-1-yl]-3-(3-fluoro-benzyl)-2-methyl-pentan-3-ol] |
| 39% | CCC(O)(c1ccc(F)c(C)c1)C(C)CN1CCN(c2cccc(Cl)c2)CC1 (stereo not shown) [1-[4-(3-Chloro-phenyl)-piperazin-1-yl]-3-(4-fluoro-3-methyl-phenyl)-2-methyl-pentan-3-ol] |
| 73% | CCC(O)(C(C)CN1CCN(c2cccc(Cl)c2)CC1)C1CCCCC1 (stereo not shown) [1-[4-(3-Chloro-phenyl)-piperazin-1-yl]-3-cyclohexyl-2-methyl-pentan-3-ol] |
| 53% | CCC(O)(c1ccc(F)cc1)C(C)CN1CCN(c2cccc(Cl)c2)CC1 (stereo not shown) [1-[4-(3-Chloro-phenyl)-piperazin-1-yl]-3-(4-fluoro-phenyl)-2-methyl-pentan-3-ol] |
| 53% | C=CC(O)(CC)C(C)CN1CCN(c2cccc(Cl)c2)CC1 (stereo not shown) [5-[4-(3-Chloro-phenyl)-piperazin-1-yl]-3-ethyl-4-methyl-pent-1-en-3-ol] |
| 55% | CCC(O)(CCCc1ccccc1)C(C)CN1CCN(c2cccc(Cl)c2)CC1 (stereo not shown) [1-[4-(3-Chloro-phenyl)-piperazin-1-yl]-3-ethyl-2-methyl-6-phenyl-hexan-3-ol] |

These molecules were tested on binding site 2 of the sodium channel (assay: Binding investigations at sodium channel binding site 2 (BTX binding)). Conditions: 10 μM; rat cerebrocortex synaptosomes; [3H]-Batrachotoxinin A20 α-benzoate 10 nM; 37° C., 120 min.
Experimental: Binding Investigations at Sodium Channel Binding Site 2
Binding site 2 of the sodium channel is the so-called batrachotoxin (BTX) binding site. [^3H]-Batrachotoxinin A20 α-benzoate (10 nM in the batch) was used as ligand. These ion channel particles (synaptosomes) were enriched from rat cerebrocortex after Gray and Whittaker (E. G. Gray and V. P. Whittaker (1962) J. Anat. 76, 79-88). The radioactivity measured in the presence of veratridine (0.3 mM in the batch) is defined as non-specific binding.
The assay conditions were as published by Pauwels, Leysen and Laduron (P. J. Pauwels, J. E. Leysen and P. M. Laduron (1986) Eur. J. Pharmacol. 124, 291-298). Incubation at 37° C. for 120 min.

| Molecule | BTX binding at 10 μM [%] inhibition |
| --- | --- |
| CN1CCN(CC2CCCCCCC2(O)Cc2ccccc2)CC1 (stereo not shown) [1-Benzyl-2-(4-methyl-piperazin-1-ylmethyl)-cyclooctanol] | 75% |
| CCC(O)(C(C)CN1CCN(C)CC1)C1CCCCC1 (stereo not shown) [3-Cyclohexyl-2-methyl-1-(4-methyl-piperazin-1-yl)-pentan-3-ol] | 59% |
| CN1CCN(CC2CCCCC2(O)Cc2ccccc2)CC1 (stereo not shown) [1-Benzyl-2-(4-methyl-piperazin-1-ylmethyl)-cyclohexanol] | 71% |
| CN1CCN(CC2CCCCCC2(O)Cc2ccccc2)CC1 (stereo not shown) [1-Benzyl-2-(4-methyl-piperazin-1-ylmethyl)-cycloheptanol] | 86% |
| CCC(O)(CCCc1ccccc1)C(C)CN1CCN(C)CC1 (stereo not shown) [3-Ethyl-2-methyl-1-(4-methyl-piperazin-1-yl)-6-phenyl-hexan-3-ol] | 74% |
| CCC(O)(Cc1ccccc1)C(C)CN1CCN(C)CC1 (stereo not shown) [3-Benzyl-2-methyl-1-(4-methyl-piperazin-1-yl)-pentan-3-ol] | 42% |
| CCC(O)(c1ccc(C)cc1)C(C)CN1CCN(C)CC1 (stereo not shown) [2-Methyl-1-(4-methyl-piperazin-1-yl)-3-p-tolyl-pentan-3-ol] | 48% |
| CCC(O)(c1ccc(F)c(C)c1)C(C)CN1CCN(C)CC1 (stereo not shown) [3-(4-Fluoro-3-methyl-phenyl)-2-methyl-1-(4-methyl-piperazin-1-yl)-pentan-3-ol] | 56% |
| CN1CCN(CC2CCCCC2(O)CCCc2ccccc2)CC1 (stereo not shown) [2-(4-Methyl-piperazin-1-ylmethyl)-1-(3-phenyl-propyl)-cyclohexanol] | 80% |
| CN1CCN(CC2CCCCCCC2(O)c2ccc(C(C)(C)C)cc2)CC1 (stereo not shown) [1-(4-tert-Butyl-phenyl)-2-(4-methyl-piperazin-1-ylmethyl)-cyclooctanol] | 64% |
| CN1CCN(CC2CCCCCC2(O)c2ccc(C(C)(C)C)cc2)CC1 (stereo not shown) [1-(4-tert-Butyl-phenyl)-2-(4-methyl-piperazin-1-ylmethyl)-cycloheptanol] | 80% |
| CCC(O)(c1ccc(C(C)(C)C)cc1)C(C)CN1CCN(C)CC1 (stereo not shown) [3-(4-tert-Butyl-phenyl)-2-methyl-1-(4-methyl-piperazin-1-yl)-pentan-3-ol] | 68% |
| CCC(O)(c1ccccc1C)C(C)CN1CCN(C)CC1 (stereo not shown) [2-Methyl-1-(4-methyl-piperazin-1-yl)-3-o-tolyl-pentan-3-ol] | 43% |
| CN1CCN(CC2CCCCCC2(O)C2CCCC2)CC1 (stereo not shown) [1-Cyclopentyl-2-(4-methyl-piperazin-1-ylmethyl)-cycloheptanol] | 55% |
| CN1CCN(CC2CCCCCCC2(O)c2cccs2)CC1 (stereo not shown) [2-(4-Methyl-piperazin-1-ylmethyl)-1-thiophen-2-yl-cyclooctanol] | 64% |
| CN1CCN(CC2CCCCC2(O)c2ccc(Cl)cc2Cl)CC1 (stereo not shown) [1-(2,4-Dichloro-phenyl)-2-(4-methyl-piperazin-1-ylmethyl)-cyclohexanol] | 55% |
| Cc1ccccc1C1(O)CCCCC1CN1CCN(C)CC1 (stereo not shown) [2-(4-Methyl-piperazin-1-ylmethyl)-1-o-tolyl-cyclohexanol] | 50% |
| C=CC(O)(CC)C(C)CN1CCN(C)CC1 (stereo not shown) [3-Ethyl-4-methyl-5-(4-methyl-piperazin-1-yl)-pent-1-en-3-ol] | 67% |
| CN1CCN(CC2CCCCC2(O)C2CCCCC2)CC1 (stereo not shown) [2-(4-Methyl-piperazin-1-ylmethyl)-bicyclohexyl-1-ol] | 63% |
| COc1ccc(C2(O)CCCCCCC2CN2CCN(C)CC2)cc1 (stereo not shown) [1-(4-Methoxy-phenyl)-2-(4-methyl-piperazin-1-ylmethyl)-cyclooctanol] | 42% |
| CCC(O)(c1ccccc1)C(C)CN1CCN(C)CC1 (stereo not shown) [2-Methyl-1-(4-methyl-piperazin-1-yl)-3-phenyl-pentan-3-ol] | 58% |
| CN1CCN(CC2CCCCC2(O)C2CCCC2)CC1 (stereo not shown) [1-Cyclopentyl-2-(4-methyl-piperazin-1-ylmethyl)-cyclohexanol] | 49% |
| CCC(O)(c1cccs1)C(C)CN1CCN(C)CC1 (stereo not shown) [2-Methyl-1-(4-methyl-piperazin-1-yl)-3-thiophen-2-yl-pentan-3-ol] | 47% |
| CN1CCN(CC2CCCCCCC2(O)C2CCCC2)CC1 (stereo not shown) [1-Cyclopentyl-2-(4-methyl-piperazin-1-ylmethyl)-cyclooctanol] | 48% |
| CN1CCN(CC2CCCCCCC2(O)CCCc2ccccc2)CC1 (stereo not shown) [2-(4-Methyl-piperazin-1-ylmethyl)-1-(3-phenyl-propyl)-cyclooctanol] | 87% |
| Cc1cccc(C2(O)CCCCCC2CN2CCN(C)CC2)c1 (stereo not shown) [2-(4-Methyl-piperazin-1-ylmethyl)-1-m-tolyl-cycloheptanol] | 44% |
| CCC(O)(c1ccc(Cl)cc1)C(C)CN1CCN(C)CC1 (stereo not shown) [3-(4-Chloro-phenyl)-2-methyl-1-(4-methyl-piperazin-1-yl)-pentan-3-ol] | 59% |

Same assay, conditions: radioligand; rat cerebrocortex synaptosomes; read-out: KD value for this binding site

| Molecule | Kd |
| --- | --- |
| [^3H]-Batrachotoxinin A20 α-benzoate [reference compound] | 24.6 nM |
